Test results published in patent US20240382459A1, “MECHANISMS OF ANDROGEN RECEPTOR-CENTERED TRANSCRIPTIONAL NETWORKS IN REGULATING CD8+ T CELL EXHAUSTION AND THERAPEUTIC APPLICATIONS IN CANCER” (Ohio State Innovation Foundation, priority 2023, published 2024).

How the values were obtained:
human Tcf7 promoter = conditions: HEK293FT with or without EGFP-C1-AR, 24 h, 500 ng/mL testosterone or 50 nM DHT
Experimental: Renilla and Red Firefly luciferase activity, the latter of which was regulated by a 1 kb long WT or mutant Tcf7 promoter sequence lacking putative AREs (FIG. 13A), were simultaneously measured in control or EGFP-C1-AR overexpressing HEK293FT post 24 h stimulation with 500 ng/mL testosterone (T) or 50 nM DHT.
Red Firefly luciferase activity, as regulated by a 1 kb long human WT or mutant Tcf7 promoter sequence lacking putative AREs, was measured in EGFP-C1-AR overexpressing HEK293FT cells post 24 h stimulation with 500 ng/mL testosterone or vehicle control.
WT or mutated human Tcf7 promoter sequence of one kb upstream from its transcriptional start site was cloned into the pMCS-Red Firefly Luciferase vector (Thermo Fisher). Mutants lacked individual (“Mut 1-4”) or all putative AR binding sites. Briefly, 40,000 HEK293FT cells were grown on a 96 well plate at 80% confluence. Cells were transfected with 200 ng of pEGFP-C1-human AR (a gift from Michael Mancini, Addgene plasmid #28235) and indicated Tcf7 luciferase reporter plasmids using Lipofectamine 2000 (Thermo Fisher) on Day 0 in triplicates. Renilla luciferase gene expression was used to ensure transfection efficiency (Thermo Fisher). […] Cells were then harvested and luciferase activity was analyzed by using Dual-Luciferase Reporter Assay System (Promega).

[1] = tested on: AR-overexpressing Jurkat cells; conditions: 100 nM, re-stimulated Days 0, 3, 6, over 9 days
Experimental: Data are mean±SEM. Statistical significance was determined by Student's t test. **p≤0.01, ****p≤0.0001.
Empty vector and androgen receptor-expressing Jurkat cells were seeded into six well plates (Gibco) at 2×10^5 cells per well and treated with 100 nM testosterone (Sigma) or DHT (Millipore), alongside methanol vehicle control (Thermo Fisher). Every three days, cells were counted using the BioRad TC20 automated cell counter, passaged, and re-stimulated with the same androgen concentrations over a time course of 3, 6, and 9 days.

[2] = tested on: MB49 mouse urothelial carcinoma cells; assay: MB49 tumor growth in WT mice after daily oral enzalutamide; assay type: in vivo; conditions: male WT mice, enzalutamide 25 mg/kg daily oral gavage from Day 5, vs vehicle
Text: FIGS. 5A, 5B, 5C, 5D, 5E, 5F, 5G, 5H, 5I, and 5J show T cell intrinsic AR signaling contributes to male bias in tumor growth and accumulation of CD8^+ progenitor exhausted T cells. MB49 growth and circulating free testosterone levels in (5A) Four Core Genotype or (5B) WT mice three weeks post sham or surgical castration (cast). […] LNCaP lysates were used as the positive AR control. Rep, replicate. […] For tumor growths, mean area (mm^2)±SEM are reported, with statistical significance determined using the repeated measures two-way ANOVA. n=6-11 mice per group.
MB49 (a gift from C. Voelkel-Johnson from the Medical University of South Carolina) and BKL171 mouse urothelial carcinoma cells were cultured in Dulbecco's modified Eagle's medium with 10% heat-inactivated fetal bovine serum and 1% penicillin/streptomycin. 5×10^5 tumor cells were resuspended in 100 μL ice cold PBS for subcutaneous injection into the right flank of a mouse. For antibody-mediated T cell depletion experiments, mice were injected intraperitoneally with 200 μg of anti-mouse CD4 (Clone GK1.5, BioXCell) and/or CD8 neutralizing antibodies (Clone 53-6.7, BioXCell), followed by 100 μg thereafter on the indicated days. […] Tumor surface area (width×length mm^2) was measured using an electronic caliper starting on Day 4 post implantation.

[3] = tested on: CD8+ tumor-infiltrating lymphocytes (TILs) from female patients with bladder cancer; assay: AR blockade of in vitro expanded CD8+ bladder cancer TILs, flow cytometry; assay type: cell-based, human; conditions: enzalutamide (50 uM in the presence of 10 nM DHT; varying doses), ex vivo expanded TILs
Text: FIGS. 19A, 19B, 19C, 19D and 19E show androgen receptor blockade of in vitro expanded CD8+ bladder cancer TILs promotes effector differentiation and function. […] Statistical significance in FIGS. 19A-C determined by repeated measures ANOVA. P values were corrected for multiple hypothesis testing using the Dunnett method. Statistical significance in FIG. 19E determined by Student's paired t test. *P≤0.05.
In FIG. 19, we investigated the impact of androgen receptor (AR) blockade on in vitro expanded CD8^+ tumor-infiltrating lymphocytes (TILs) from female patients with bladder cancer, focusing on effector differentiation and function. Panel A (FIG. 19A) illustrates the effect of dihydrotestosterone (DHT) treatment on the CD8+GZMB^high population within ex vivo expanded TILs. […] Panel D (FIG. 19D) assesses IFNγ production in CD8+ TILs after PMA/ionomycin/golgi block stimulation with or without enzalutamide. Lastly, Panel E presents the median fluorescence intensity (MFI) of IFN-gamma within the CD8+GZMB^high population. Statistical significance in Panels A-C was determined by repeated measures ANOVA, with P values corrected for multiple hypothesis testing using the Dunnett method. In Panel E (FIG. 19E), statistical significance was determined by Student's paired t test (*P≤0.05).

Tcf7 = assay: qPCR of naive CD8+ T cells stimulated with testosterone, type I IFN or both; assay type: cell-based, mouse
Experimental: See methods for details. […] Blue, Male; Pink, Female.
Mouse spleens and tumors were mechanically disrupted, with the latter additionally subjected to digestion with 1 mg/mL Collagenase D (Roche) for 30 min at 37° C. while shaken at 125 rpm. Excess volume of ice-cold PBS with 2% bovine serum albumin was used to inactivate the enzymatic activity. Red Blood Cell Lysis Buffer (BioLegend) was utilized on tissues before they were passed through 70 μm filters to prepare single cell suspensions. For cytokine production experiments, cells were re-stimulated by 50 ng/mL PMA (Sigma), 1 μg/mL Ionomycin (Sigma) and 1× Brefeldin A (BioLegend) in a 48-well plate for 2 hours at 37° C. For in vitro cultures, purified CD8^+ T cells were left untreated or stimulated with 50 ng/mL testosterone (Sigma) and/or 50 U/mL mouse IFN alpha A (PBL Assay Science). Cells were stained at 4° C. with eFluor506 fixable viability dye for 10 minutes (Invitrogen), followed by extracellular surface markers and FcR block concurrently for 30 minutes. […]
RNA was extracted from FACS/MACS-isolated CD8^+ T cells and reverse-transcribed using RNeasy Micro Kit (Qiagen) and SuperScript™ IV VILO™ Master Mix with ezDNase™ Enzyme (ThermoFisher Scientific), respectively. Quantitative PCR was performed with the following primers: […]

SMILES | Tcf7 promoter activity (Red Firefly luciferase) (human Tcf7 promoter) | proliferation [1] | MB49 tumor growth [2] | effector differentiation and function of CD8+ TILs (GZMB high frequency, PD-1 high TOX high frequency, IFNγ) [3] | Ar expression (qPCR) (Tcf7; female CD8+ T cells, testosterone) | Tcf7 expression (qPCR) (Tcf7; male CD8+ T cells, acute testosterone exposure, 6 hours)
C[C@]12CCC(=O)C[C@@H]1CC[C@@H]1[C@@H]2CC[C@]2(C)[C@@H](O)CC[C@@H]12 [DHT, dihydrotestosterone] | stimulated Tcf7 promoter activity in an AR dependent manner | decreased proliferation | – | – | – | –
CNC(=O)c1ccc(N2C(=S)N(c3ccc(C#N)c(C(F)(F)F)c3)C(=O)C2(C)C)cc1F [enzalutamide] | – | – | partial protection against tumor growth | promoting effector differentiation and function | – | –
C[C@]12CC[C@H]3[C@@H](CCC4=CC(=O)CC[C@@]43C)[C@@H]1CC[C@@H]2O [testosterone] | stimulated Tcf7 promoter activity in an AR dependent manner | decreased proliferation | – | – | induction of Ar expression | significantly increased
